Patent publication US20080009517A1, “Use of nelfinavir as a radiation sensitizer” (The Trustees of the University of Pennsylvania, priority 2005, published 2008)
Entries after “also recorded” stand apart in the source; their conditions may differ.

Legend:
[1] = test system: non-small cell lung carcinoma; conditions: randomized phase II trial; cited from earlier work
[2] = test system: Akt phosphorylation at Ser 473; assay: Western blot analysis of Akt phosphorylation in SQ2OB cells; type: cell-based, human
Text: Using Western blot analysis, a human head-and-neck cancer cell line, SQ2OB, containing a constitutively-active EGFR receptor and thus, increased signaling through PI3K, was examined for Akt phosphorylation.

SQ20B = assay: Clonogenic assay, radiation sensitization, SQ20B cells; type: cell-based, human; conditions: SQ2OB cells, 5 μM nelfinavir + 2 Gy radiation; control 70%
Method: (§1) Cultures of cells in log growth phase were counted and plated in 60-mm dishes containing 4 ml of media. The cells were allowed to attach and nelfinavir was added to cultures at least one hour prior to irradiation. Cells were irradiated with a Mark I cesium irradiator (J. L. Shepherd, San Fernando, Calif.) at a dose rate of 1.6 Gy/min. Colonies were stained and counted 10-14 days after irradiation. A light box was used to assist in counting colonies. The surviving fraction was calculated by dividing the number of colonies formed by the number of cells plated times plating efficiency (Table 1). Each point value represents the mean surviving fraction from at least six replicate dishes.

T24 = assay: Clonogenic assay, radiation sensitization, T24 cells; type: cell-based; conditions: T24, 2 Gy, nelfinavir added at least one hour prior to irradiation; mean +/- spread
Method: as §1

MIAPACA2 = assay: Clonogenic assay, radiation sensitization, MIAPACA2 cells; type: cell-based; conditions: MIAPACA2, 2 Gy, nelfinavir added at least one hour prior to irradiation; mean +/- spread
Method: as §1

A549 = assay: Clonogenic assay, radiation sensitization, A549 cells; type: cell-based; conditions: A549, 2 Gy, nelfinavir added at least one hour prior to irradiation; mean +/- spread
Method: as §1

REF = assay: Clonogenic assay, radiation sensitization, REF cells; type: cell-based; conditions: 2 Gy, nelfinavir added at least one hour prior to irradiation, mean +/- spread
Method: as §1

SQ2OB xenograft tumors = assay: In vivo to in vitro clonogenic assay in nude mice with SQ2OB tumors
Method: In an in vivo experiment to examine the nelfinavir-mediated radiation sensitization of tumors, tumors in animals were radiation-sensitized using nelfinavir. FIG. 5 illustrates the results of an in vivo to in vitro clonogenic assay in nude mice with SQ2OB tumors. Mice were treated with 8 Gy radiation, with and without nelfinavir at 0.6 mg/day. […] FIG. 6 illustrates the results of in vivo to in vitro clonogenic assays used to examine in vivo sensitization of tumor cells to drugs. Nelfinavir was delivered to mice at 0.6 mg/day via osmotic pump. The mice had SQ2OB xenograft tumors on hind leg. The pump was placed in mouse 2 days prior to experiment. On the day of experiment, the mouse was anesthetized and irradiated to 8 Gy. The tumor was then harvested and a cell suspension made. The cells were plated and the plating efficiency determined. The result indicted the number of cells that were viable and able to reproduce by forming colonies in each individual group (plating efficiency).

Akt phosphorylation = assay: Western blot of Akt phosphorylation in white blood cells of HIV patients; type: in vivo, human; conditions: HIV patients taking nelfinavir vs. HIV patients not actively using nelfinavir
Text: As a proof of principle, it was examined whether there was down-regulation of Akt in HIV patients who are being actively treated with HPIs. Blood samples were obtained from HIV patients on courses of various combinations of drugs. WBCs were isolated and stained for Akt using a Western Blot. Patients taking nelfinavir had decreased Akt phosphorylation compared to the levels of Akt phosphorylation detected in HIV patients who were not actively using nelfinavir (FIG. 7).

| Structure (SMILES) | radiographic response rate [1] [%] | Akt phosphorylation at Ser 473 ([2]; 5 μM nelfinavir) | Akt phosphorylation at Ser 473 ([2]; 10 μM nelfinavir) | surviving fraction after 2 Gy (SF2) (SQ20B) [%] | nelfinavir SF2 (T24) | nelfinavir SF2 (MIAPACA2) | nelfinavir SF2 (A549) | nelfinavir SF2 (REF) | plating efficiency of tumor cells derived from the mice (SQ2OB xenograft tumors; nelfinavir 0.6 mg/day + 8 Gy radiation) | plating efficiency of tumor cells derived from the mice (SQ2OB xenograft tumors; nelfinavir alone 0.6 mg/day, no radiation) | Akt phosphorylation in white blood cells (Akt phosphorylation) |
| --- | --- | --- | --- | --- | --- | --- | --- | --- | --- | --- | --- |
| COc1cc2ncnc(Nc3ccc(F)c(Cl)c3)c2cc1OCCCN1CCOCC1 [Iressa, gefitinib] | ~10 | – | – | – | – | – | – | – | – | – | – |
| Cc1c(O)cccc1C(=O)N[C@@H](CSc1ccccc1)[C@H](O)CN1C[C@H]2CCCC[C@H]2C[C@H]1C(=O)NC(C)(C)C [nelfinavir] | – | down-regulation | abolished | 40 | 0.452 +/− 0.023 | 0.526 +/− 0.040 | 0.410 +/− 0.062 | 0.397 +/− 0.054 | synergistically decreased; also recorded: significant increase in cell kill | did not result in a change; also recorded: no toxicity | decreased |
